Assay [1] deals with E. coli 327. In words: in vitro MIC against E. coli 327 at different inoculum sizes (Table 2). Type of assay: cell-based.
In assay [2] the test system is Staphylococcus aureus 209 P JC-1. Description: in vitro antimicrobial activity, two-fold agar-plate dilution method, S. aureus 209 P JC-1. The settings on record: 209PJC1, Table 1, S. aureus 209 P JC-1, 37° C., 20 hours, read-out: minimum inhibitory concentration (MIC). Type of assay: cell-based. On the procedure:
(§1) In vitro antimicrobial activity was determined by the two-fold agar-plate dilution method as described below.
(§2) One loopful of an overnight culture of each test strain in Trypticase-soy broth (10^8 viable cells per ml) was streaked on heart infusion agar (HI-agar) containing graded concentration of antibiotics, and the minimum inhibitory concentration (MIC) was expressed in terms of meg/ml after incubation at 37° C. for 20 hours.
(§3) The data in Table 1 below present a comparison between the 2-(C1 -C6 alkyl)-cephem compounds of the present invention and known cephem compounds structurally analogous to the present compounds, differing only by alkyl substitution in the 3-position. The in vitro tests of antimicrobial activity of the compared compounds were determined by the two-fold agar plate dilution method described as follows:
(§4) One loopful of an overnight culture of each test strain in Trypticase-soy broth (10^8 viable cells per ml) was streaked on heart infusion agar (HI sugar) containing graded concentration of antibiotics, and the minimum inhibitory concentration (MIC) was expressed in terms of mcg/ml after incubation at 37° C. for 20 hours.

Assay [3] has as its system Bacillus subtilis ATCC-6633. Description: in vitro antimicrobial activity, two-fold agar-plate dilution method, B. subtilis ATCC-6633. Type of assay: cell-based. Conditions: ATCC6633, Table 1, B. subtilis ATCC-6633, 37° C., 20 hours, read-out: minimum inhibitory concentration (MIC). As for the experimental part: as §1, §2, §3, §4
In assay [4] the test system is E. coli 327. In words: protecting effect against experimental infections in mice. It is filed as in vivo, mice (male ICR strain). Conditions: E. coli 327, intraperitoneal inoculation 8.5×10^2 cells/mouse, subcutaneous one hour after challenge, survival after one week, probit method. As for the experimental part:
The following test describes the method of estimating the protecting effects of Applicants' compound (18) versus cited […], "Keflex", against experimental infections in mice.
Male ICR strain mice aged 4 weeks, each weighing 20-23 g were used in groups of 8 mice. The organisms precultured overnight at 37° C. on HI-agar were suspended in 5% mucin solution to obtain cell concentrations of 8.5×10^2 cells/mouse. Mice were inoculated intraperitoneally with 0.5 ml of the suspension. Each of the test antibiotics was given subcutaneously to the mice one hour after challenge. The ED50 values were found by the probit method from the number of surviving mice after one week of observation.

Assay [5] has as its system Staphylococcus aureus 277. Description: in vitro antimicrobial activity, two-fold agar plate dilution method, S. aureus 277. Type of assay: cell-based. Conditions: Table 1, S. aureus 277, 37° C., 20 hours, read-out: minimum inhibitory concentration (MIC). On the procedure: (§5) The in vitro tests of antimicrobial activity of the compared compounds were determined by the two-fold agar plate dilution method described as follows: […]

Assay [6] relates to Staphylococcus aureus 206. In words: in vitro antimicrobial activity, two-fold agar plate dilution method, S. aureus 206. Type of assay: cell-based. The settings on record: Table 1, S. aureus 206, 37° C., 20 hours, read-out: minimum inhibitory concentration (MIC). On the procedure: as §5
Assay [7] relates to Staphylococcus aureus 213. In words: in vitro antimicrobial activity, two-fold agar plate dilution method, S. aureus 213. Type of assay: cell-based. Conditions: Table 1, S. aureus 213, 37° C., 20 hours, read-out: minimum inhibitory concentration (MIC). As for the experimental part: as §5
The subject of assay [8] is Staphylococcus aureus 226. Description: in vitro antimicrobial activity, two-fold agar plate dilution method, S. aureus 226. The settings on record: Table 1, S. aureus 226, 37° C., 20 hours, read-out: minimum inhibitory concentration (MIC). It is filed as cell-based. On the procedure:
as §5

Assay [9] has as its system Staphylococcus aureus 278. In words: in vitro antimicrobial activity, two-fold agar plate dilution method, S. aureus 278. Type of assay: cell-based. The settings on record: Table 1, S. aureus 278, 37° C., 20 hours, read-out: minimum inhibitory concentration (MIC). As for the experimental part:
as §5

Structures are written as SMILES. ≈ marks a conversion by molar mass, not a printed value.

For the compound `CC1C=C(C(=O)O)N2C(=O)C(NC(=O)C(N)c3ccccc3)C2S1` (centres unmarked) [Applicants' compound (18), 2-Methyl-7-(2-phenylglycyl)-amino-3-cephem-4-carboxylic acid], the MIC in the assay with E. coli 327 [1] (Escherichia coli, 327, E. coli 327, inoculum size 10^4) is 12.5 µg/mL (≈ 36 µM); with E. coli 327 [1] (Escherichia coli, 327, E. coli 327, inoculum size 10^6), 50 µg/mL (≈ 144 µM); with E. coli 327 [1] (Escherichia coli, 327, E. coli 327, inoculum size 10^8), 100 µg/mL (≈ 288 µM); in assay [2], 6.25 µg/mL (≈ 18 µM); in assay [3], 1.56 µg/mL (≈ 4.49 µM); in [5] it was 12.5 µg/mL (≈ 36 µM). For the same compound, the MIC in assay [6] is 12.5 µg/mL (≈ 36 µM); in [7] it was 50 µg/mL (≈ 144 µM); in assay [8], 25 µg/mL (≈ 72 µM); in [9], 25 µg/mL (≈ 72 µM). For the same compound, the ED50 in the assay on E. coli 327 [4] is given as 0.25 mg/mouse.
